We go through six compounds from article PMC10459838 (Veterinary Sciences, 2023).

Like-named read-outs stand apart in the source and are kept apart here.

Data set [1] can be described thus: Cell viability assay (MTT, Cell Proliferation Kit I). Format: cell-based, feline. As to conditions: cat. The procedure: (§1) The Crandell-Reese feline kidney (CRFK) cells utilized in this study were purchased from American Type Culture Collection (ATCC, Manassas, VA, USA), and cultured in Eagle’s Minimum Essential Medium (EMEM) medium supplemented with 10% fetal bovine serum (FBS), 1% antibiotics (penicillin and streptomycin), and 1% non-essential amino acids. The reagents were obtained from ATCC. The CRFK cells were incubated at 37 °C with 5% CO2.
(§2) The cell viability of CRFK cells was measured using a Cell Proliferation Kit I (MTT) (Roche Applied Science, Indianapolis, IN, USA), following the manufacturer’s instructions. […] After incubation for 48 h, 10 μL of MTT solution (0.5 mg/mL in phosphate-buffered saline) was added to each well. The plate was incubated for 4 h at 37 °C to allow the formation of formazan crystals. Following incubation, 1% sodium dodecyl sulfate (100 μL) solution was added to dissolve the crystals.

For data set [2], the system named is CRFK cells. The description is as above. Format: cell-based, feline. The procedure: as §1, §2
Data set [3] has as its system FIPV serotype II strain (WSU-79-1146). In words: Antiviral efficacy against FIPV replication in CRFK cells, viral load by qRT-PCR. Format: cell-based, feline infectious peritonitis virus. Conditions: for Viral load (FIPV RNA copies) / FIPV viral copies with GS441524: GS441524 25 µM; for Viral load (FIPV RNA copies): inoculum […] 10^4 TCID50/mL; for Selectivity index (SI) = (mean CC50)/(mean EC50): against FIPV in CRFK cells. Background: In qPCR the cycle at which signal appears reflects the starting amount.

In data set [4] the test system is CRFK cells. Conditions: 48 h.
Data set [5] deals with FIPV. More on the design: method as in earlier work. Conditions: ref 39 (Jiao, Yan et al.); cited from earlier work.
For data set [6], the system named is COVID-19. Further details: method as in PMID 34933447. Conditions: co-administered with ritonavir within 3 to 5 days of COVID-19 symptom onset; cited from earlier work.
The mark [7] stands for this setting: CRFK cells (Crandell-Reese feline kidney), CRFK cells treated with drugs for 48 h, MTT assay (Figure 5), read-out: 50% cytotoxic concentration (CC50).
Setting [8] is: Alphacoronavirus 1, CRFK, 48 h, CRFK cells, FIPV […] 10^4 TCID50/mL, 48 h, qRT-PCR, read-out: 50% effective concentration (EC50) against FIPV replication.
Setting [9] is: CRFK cells treated with drugs for 48 h, MTT assay (Figure 5), read-out: 50% cytotoxic concentration (CC50).
Where [10] appears, read: CRFK cells, FIPV […] 10^4 TCID50/mL, 48 h, qRT-PCR, read-out: 50% effective concentration (EC50) against FIPV replication.

For the compound `C/C(O)=C(\C#N)C(=O)Nc1ccc(C(F)(F)F)cc1` [Teriflunomide], in data set [1] (setting [7]), the CC50 at 48 h turned out to be 134 µM. The “Concentration as high as which the drug could be used safely with minimal cytotoxicity” value (“Concentration as high” for short) in data set [2] (CRFK cells, 48 h, MTT staining) is given as 62.5 µM. Besides, the EC50 in data set [3] (setting [8]) amounted to 49.6 µM. For the same compound, the “Highest concentration with essentially no cytotoxicity” value in data set [4] (cat) was determined as 63 µM.
`N#CC[C@H](C1CCCC1)n1cc(-c2ncnc3[nH]ccc23)cn1` [Ruxolitinib]: in data set [1] (50% cytotoxic concentration (CC50)), the CC50 at 48 h came out at 338 µM. The same compound returned a CC50 in data set [2] (cat, 48 h) of 338 µM. Moreover, in data set [3] (Alphacoronavirus 1, CRFK, 48 h, read-out: 50% effective concentration (EC50) against FIPV replication), the EC50 is 43.6 µM. Further, the “Lowest concentration at which cytotoxicity was observed” value in data set [4] (CRFK cells, cytotoxicity assay) was 250 µM.
Regarding `N#C[C@@]1(c2ccc3c(N)ncnn23)O[C@H](CO)[C@@H](O)[C@H]1O` [GS441524, GS-441524], the CC50 at 48 h in data set [1] (setting [9]) was 260 µM. Moreover, the CC50 in data set [2] (setting [9]) came to 260 µM. In data set [3] (0.5 µM, 10-fold dilutions), the “Cytopathic effects (CPEs) in FIPV-infected cells” value (from here on “Cytopathic effects (CPEs)”) is given as “no CPEs observed in cells”. Further, the “Reduction in FIPV copy number” value in data set [3] (0.98 µM, two-fold dilutions, 48 hpi) turned out to be 22.5%. The “Lowest concentration with anti-FIPV efficacy compared to no-drug group” value in data set [3] (10-fold dilutions, 48 hpi) stood at 0.5 µM. The results for the EC50 in data set [3] (setting [8]) and in data set [3] (setting [10]) were 1.57 µM and 1.6 µM, respectively. The compound also yielded an inhibition at 0.5 µM in data set [3] (Alphacoronavirus 1, CRFK, 0.5 µM, 10-fold dilutions, 48 hpi) of 85%. In data set [3] (Alphacoronavirus 1, CRFK, 7.8 µM, two-fold dilutions, 48 hpi), this compound came in with an inhibition at […] of 98.3%. Further, the “Viral load (FIPV RNA copies)” value is 2.58 × 10^4 per ml in data set [3] (0 hpi (applied at inoculation, remained), 24 h); 1.97 × 10^4 per ml in data set [3] (0 hpi, 48 h); 2.04 × 10^4 per ml in data set [3] (0 hpi, 72 h); 2.84 × 10^4 per ml in data set [3] (+1 hpi (applied 1 h post inoculation), 24 h); 1.52 × 10^4 per ml in data set [3] (+1 hpi, 48 h); 1.39 × 10^4 per ml in data set [3] (+1 hpi, 72 h). For the same compound, the “Viral load (FIPV RNA copies)” value is on record as 2.47 × 10^4 per ml in data set [3] (−2 & +1 hpi (applied 2 h before, removed, applied again at 1 hpi), 24 h); 1.97 × 10^4 per ml in data set [3] (−2 hpi (applied 2 h before inoculation, removed before inoculation), 24 h); 2.94 × 10^5 per ml in data set [3] (−2 hpi, 48 h); 6.89 × 10^6 per ml in data set [3] (−2 hpi, 72 h). The “FIPV viral copies with GS441524” value in data set [3] (FIPV inoculum […] 10^2 TCID50/mL, 48 h) is recorded as 4.60 × 10^1 per ml; in data set [3] (FIPV inoculum […] 10^2 TCID50/mL, 72 h), 2.36 × 10^1 per ml; in data set [3] (FIPV inoculum […] 10^3 TCID50/mL, 48 h), 3.48 × 10^2 per ml; in data set [3] (FIPV inoculum […] 10^3 TCID50/mL, 72 h), 2.09 × 10^2 per ml; in data set [3] (FIPV inoculum […] 10^4 TCID50/mL, 48 h) it was 2.76 × 10^3 per ml; in data set [3] (FIPV inoculum […] 10^4 TCID50/mL, 72 h) it was 3.24 × 10^3 per ml. Also, in data set [3] (two-fold dilutions, 48 hpi), the “Lowest concentration with antiviral efficacy” value stood at 0.98 µM.
As to `CC(C)C(=O)OC[C@H]1O[C@@H](n2ccc(NO)nc2=O)[C@H](O)[C@@H]1O` [Molnupiravir], the CC50 at 48 h in data set [1] (setting [7]) is 235 µM. In addition, the CC50 in data set [2] (setting [9]) came out at 235 µM. In addition, the “Concentration as high” value in data set [2] (CRFK cells, 48 h, MTT staining) came to 63 µM. The EC50 in data set [3] (setting [8]) was 8 µM; in data set [3] (setting [10]), 8.04 µM. Also, the figures for the “Selectivity index (SI) = (mean CC50)/(mean EC50)” value in data set [3] and in data set [3] (listed as molnupiravir) were 29.3 and 29.27, respectively. The “Highest concentration with essentially no cytotoxicity” value in data set [4] (CRFK cells, CellTox Green) turned out to be 63 µM.
As to `CC(C)(C)[C@H](NC(=O)C(F)(F)F)C(=O)N1C[C@H]2[C@@H]([C@H]1C(=O)N[C@H](C#N)C[C@@H]1CCNC1=O)C2(C)C` [Nirmatrelvir], the CC50 at 48 h in data set [1] (setting [9]) is 279 µM. Also, the “Concentration as high” value in data set [2] (CRFK cells, 48 h, MTT staining) is 63 µM. Moreover, the “Cytopathic effects (CPEs)” value in data set [3] (5 µM, 10-fold dilutions) was “no CPEs in cells”. The EC50 in data set [3] (Alphacoronavirus 1, CRFK, 48 h, read-out: 50% effective concentration (EC50) against FIPV replication, CRFK cells, FIPV […] 10^4 TCID50/mL, 48 h, qRT-PCR) is 2.46 µM; in data set [3] (read-out: 50% effective concentration (EC50) against FIPV replication, CRFK cells, FIPV […] 10^4 TCID50/mL, 48 h, qRT-PCR) it was 2.5 µM; in data set [5], 2.52 µM. For the same compound, in data set [3] (Alphacoronavirus 1, CRFK, read-out: Inhibition of FIPV replication), the inhibition at 5 µM came to 80%. Further, the “Selectivity index (SI) = (mean CC50)/(mean EC50)” value was found to be 113.7 in data set [3] and 113.67 in data set [3] (listed as nirmatrelvir). Moreover, the “Highest concentration with essentially no cytotoxicity” value in data set [4] (CRFK cells, CellTox Green) is 63 µM. In data set [6], the “Reduction in hospitalizations and death” value was 89%.
For `CC(C)c1nc(CN(C)C(=O)N[C@H](C(=O)N[C@@H](Cc2ccccc2)C[C@H](O)[C@H](Cc2ccccc2)NC(=O)OCc2cncs2)C(C)C)cs1` [Ritonavir], the “Concentration as high” value in data set [2] (cat, 48 h) is listed as 16 µM. Also, the “Cytopathic effects (CPEs)” value in data set [3] (5 µM, 10-fold dilutions) is listed as “induced CPEs”; in data set [3] (50 µM, 10-fold dilutions), “induced CPEs”. The EC50 in data set [3] (setting [8]) is 17.6 µM. Besides, the “Highest concentration with essentially no cytotoxicity” value in data set [4] (cat) came to 16 µM. The “Lowest concentration at which cytotoxicity was observed” value in data set [4] (cat) is 31 µM.

In general, inhibition refers to the share of the control response that was lost under treatment.
